US12691141B2, “Use of micro- and nano-MgH2 compound particles in inhibition of leishmania infection and treatment of leishmaniasis” (SHANGHAI JIAO TONG UNIVERSITY, priority 2020, dated 2026)

Key:
Leishmaniabraziliensis = assay: Skin ulceration of Leishmania-infected hamsters; format: in vivo, hamsters (Mesocricetus auratus); conditions: 200 μg/mL subcutaneous injection at ulcer site 100 μL/mouse/d
Experimental: 2) Research on the treatment with micro- and nano-MgH2 compound particles: • 2.1 MgH2 compound particles with a particle diameter of 100 nm to 1,000 nm were first dissolved in a phosphoric acid buffer to prepare 5 concentration groups (1 mg/100 uL, 3 mg/100 uL, 5 mg/100 uL, 10 mg/100 uL, and 15 mg/100 uL). • 2.2 A Leishmaniabraziliensis-infected mouse model was established, which was specified as follows:
Various hamsters (Mesocricetus auratus) were selected, the lower dorsal margin was shaved, and Leishmania (1 million/100 uL/mouse) was injected subcutaneously at 2 cm of an upper margin of a tail. […] MgH2 compound particles (with a particle size of 100 nm to 1,000 nm) at different concentrations (100 uL) were smeared to a skin lesion of an infected hamster once every 24 h continuously for 14 d. An untreated group (namely, a blank control group, infected mice were not treated) and an antimony preparation subcutaneous injection group (sodium antimony gluconate (5-valent antimony preparation, 200 μg/mL) was injected subcutaneously at an ulcer site 100 μL/mouse/d) were set.

Leishmania = assay: Cure time of skin/mucosal ulcer and impaired organ function caused by Leishmania; conditions: in vivo
[1] = existing studies; cited from earlier work

## sodium antimony gluconate [Antimony preparation]
Leishmaniabraziliensis; day 0
  Healing rate of a skin ulceration wound: 0%
Leishmaniabraziliensis; day 3
  Healing rate of a skin ulceration wound: 15.3 ± 2.0%
Leishmaniabraziliensis; day 7
  Healing rate of a skin ulceration wound: 75.2 ± 4.8%
Leishmaniabraziliensis; day 14
  Healing rate of a skin ulceration wound: 88.9 ± 5.1%
Leishmania
  cure time: 1 to 3 months
[1]
  side effects: serious liver and kidney function damage
